The test concerns the target T1, BaAG2 (Blastobotrys adeninivorans, UniProt Z9CO09ION3).
T1 construct: wild type, recombinant from plasmid pURI3-BaAG2Cter in E. coli BL21(DE3), Ni-IMAC purified (plus SEC for crystals); domains span residues 1-581; most likely monomer
T1 sequence (Z9CO09ION3 1-580): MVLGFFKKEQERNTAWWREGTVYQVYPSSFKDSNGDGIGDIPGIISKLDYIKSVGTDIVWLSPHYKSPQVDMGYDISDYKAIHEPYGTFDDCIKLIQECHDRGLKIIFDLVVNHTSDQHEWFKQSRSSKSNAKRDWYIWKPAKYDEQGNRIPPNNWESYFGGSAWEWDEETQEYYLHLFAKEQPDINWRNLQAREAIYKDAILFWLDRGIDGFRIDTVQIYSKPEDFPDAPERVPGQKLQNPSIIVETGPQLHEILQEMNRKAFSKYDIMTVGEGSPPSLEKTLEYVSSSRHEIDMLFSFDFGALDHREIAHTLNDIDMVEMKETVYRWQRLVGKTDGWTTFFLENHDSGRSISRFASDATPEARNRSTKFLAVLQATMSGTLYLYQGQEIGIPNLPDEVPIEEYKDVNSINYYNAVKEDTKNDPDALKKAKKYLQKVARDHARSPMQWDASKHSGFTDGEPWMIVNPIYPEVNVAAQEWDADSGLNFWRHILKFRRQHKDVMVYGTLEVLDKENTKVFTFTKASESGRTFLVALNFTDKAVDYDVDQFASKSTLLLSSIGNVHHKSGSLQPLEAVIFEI
Briefly: X-ray crystallography, crystal soaking, […] Å. The following applies: pH 5.5, 100 mM glucose soak; active site, subsite -1. The format is binding.

SMILES strings stand for the structures.

`OC[C@H]1OC(O)[C@H](O)[C@@H](O)[C@@H]1O` (stereo partly drawn) [D-glucose]: the “X-ray crystallography, crystal soaking, 2.13 Å” value was “codes 7P01 (BaAG2-acarbose) and 7P07 (BaAG2-glucose)”.
